For orientation: IC50 means the concentration needed to halve the response being measured.

Chain of Ephrin type-A receptor 2 (Q03145 whole entry): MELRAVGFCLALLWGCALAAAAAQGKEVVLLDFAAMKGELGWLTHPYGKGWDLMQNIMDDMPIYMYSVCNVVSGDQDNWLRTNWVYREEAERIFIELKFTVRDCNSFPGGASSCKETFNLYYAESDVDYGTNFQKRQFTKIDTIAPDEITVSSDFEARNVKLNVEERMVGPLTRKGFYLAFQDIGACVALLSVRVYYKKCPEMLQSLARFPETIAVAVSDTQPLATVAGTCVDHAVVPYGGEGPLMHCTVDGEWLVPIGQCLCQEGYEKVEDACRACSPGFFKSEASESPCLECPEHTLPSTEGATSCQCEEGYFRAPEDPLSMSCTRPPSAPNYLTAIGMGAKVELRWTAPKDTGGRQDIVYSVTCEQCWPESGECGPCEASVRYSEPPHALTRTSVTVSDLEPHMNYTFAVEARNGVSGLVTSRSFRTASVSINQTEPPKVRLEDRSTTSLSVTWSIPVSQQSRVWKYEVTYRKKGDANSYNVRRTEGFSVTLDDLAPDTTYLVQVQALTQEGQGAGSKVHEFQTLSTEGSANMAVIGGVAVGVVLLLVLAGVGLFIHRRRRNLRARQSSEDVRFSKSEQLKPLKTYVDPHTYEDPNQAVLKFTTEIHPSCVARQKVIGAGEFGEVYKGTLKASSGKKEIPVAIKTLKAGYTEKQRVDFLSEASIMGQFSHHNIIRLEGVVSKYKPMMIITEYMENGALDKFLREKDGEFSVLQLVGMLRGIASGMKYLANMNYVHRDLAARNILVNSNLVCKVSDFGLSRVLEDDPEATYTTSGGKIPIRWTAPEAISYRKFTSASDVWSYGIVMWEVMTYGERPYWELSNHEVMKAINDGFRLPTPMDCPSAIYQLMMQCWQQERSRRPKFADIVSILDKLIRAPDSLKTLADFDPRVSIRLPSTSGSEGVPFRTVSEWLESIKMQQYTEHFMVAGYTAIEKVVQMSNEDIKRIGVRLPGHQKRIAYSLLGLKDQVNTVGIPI

This assay has as its target Ephrin type-A receptor 2 (Mus musculus, UniProt Q03145). In words: Displacement of biotinylated Fc-tagged ephrin-A1 from C/N-terminal 6-His tagged mouse recombinant EphA2 (Ala22 to Ala535 residues) preincubated for 1 hr followed by ephrin-A1-Fc addition and measured after 4 to 5 hrs by ELISA assay. For orientation: An ELISA detects its analyte on a solid surface through an enzyme-linked reagent.
With `C[C@H](CCC(=O)N[C@H](CC(=O)O)Cc1cn(S(=O)(=O)c2ccc([N+](=O)[O-])cc2)c2ccccc12)[C@H]1CC[C@H]2[C@@H]3CC=C4C[C@@H](O)CC[C@]4(C)[C@H]3CC[C@]12C`, the half-inhibitory concentration (IC50) came out at 3.6 µM.
The value for `C[C@H](CCC(=O)N[C@H](CC(=O)O)Cc1cn(S(=O)(=O)c2ccc(-c3ccccc3)cc2)c2ccccc12)[C@H]1CC[C@H]2[C@@H]3CC=C4C[C@@H](O)CC[C@]4(C)[C@H]3CC[C@]12C` was 20 µM; that for `C[C@H](CCC(=O)N[C@H](CC(=O)O)Cc1cn(S(=O)(=O)c2cccc(C(F)(F)F)c2)c2ccccc12)[C@H]1CC[C@H]2[C@@H]3CC=C4C[C@@H](O)CC[C@]4(C)[C@H]3CC[C@]12C` was 12 µM.
Take `C[C@H](CCC(=O)N[C@H](CC(=O)O)Cc1cn(S(=O)(=O)c2cccc(N)c2)c2ccccc12)[C@H]1CC[C@H]2[C@@H]3CC=C4C[C@@H](O)CC[C@]4(C)[C@H]3CC[C@]12C`: the half-inhibitory concentration (IC50) is 5.6 µM.
Consider `C[C@H](CCC(=O)N[C@H](CC(=O)O)Cc1cn(S(=O)(=O)c2cccc(F)c2)c2ccccc12)[C@H]1CC[C@H]2[C@@H]3CC=C4C[C@@H](O)CC[C@]4(C)[C@H]3CC[C@]12C`, for which the half-inhibitory concentration (IC50) was 29 µM.
Turning to `C[C@H](CCC(=O)N[C@H](CC(=O)O)Cc1cn(S(=O)(=O)c2cccnc2)c2ccccc12)[C@H]1CC[C@H]2[C@@H]3CC=C4C[C@@H](O)CC[C@]4(C)[C@H]3CC[C@]12C`, the IC50 is 16 µM.
As for `C[C@H](CCC(=O)N[C@H](CC(=O)O)Cc1cn(S(=O)(=O)c2ccoc2)c2ccccc12)[C@H]1CC[C@H]2[C@@H]3CC=C4C[C@@H](O)CC[C@]4(C)[C@H]3CC[C@]12C`, the half-maximal inhibitory concentration (IC50) was 6.9 µM.
With `C[C@H](CCC(=O)N[C@H](CC(=O)O)Cc1cn(S(=O)(=O)c2ccc(F)cc2)c2ccccc12)[C@H]1CC[C@H]2[C@@H]3CC=C4C[C@@H](O)CC[C@]4(C)[C@H]3CC[C@]12C`, the IC50 is 8.2 µM.
For the molecule `C[C@H](CCC(=O)N[C@H](CC(=O)O)Cc1cn(S(=O)(=O)c2ccc(N)cc2)c2ccccc12)[C@H]1CC[C@H]2[C@@H]3CC=C4C[C@@H](O)CC[C@]4(C)[C@H]3CC[C@]12C`, the half-maximal inhibitory concentration (IC50) stood at 4.7 µM.
In the case of `C[C@H](CCC(=O)N[C@H](CC(=O)O)Cc1cn(S(=O)(=O)c2ccc(C#N)cc2)c2ccccc12)[C@H]1CC[C@H]2[C@@H]3CC=C4C[C@@H](O)CC[C@]4(C)[C@H]3CC[C@]12C` it was 9.9 µM.
In the case of `C[C@H](CCC(=O)N[C@H](CC(=O)O)Cc1cn(S(=O)(=O)c2cccc([N+](=O)[O-])c2)c2ccccc12)[C@H]1CC[C@H]2[C@@H]3CC=C4C[C@@H](O)CC[C@]4(C)[C@H]3CC[C@]12C` it was 38 µM.
As for `Cc1ccc(S(=O)(=O)n2cc(C[C@@H](CC(=O)O)NC(=O)CC[C@@H](C)[C@H]3CC[C@H]4[C@@H]5CC=C6C[C@@H](O)CC[C@]6(C)[C@H]5CC[C@]34C)c3ccccc32)cc1`, the IC50 amounted to 8.3 µM.
In the case of `C[C@H](CCC(=O)N[C@H](CC(=O)O)Cc1cn(S(=O)(=O)c2ccsc2)c2ccccc12)[C@H]1CC[C@H]2[C@@H]3CC=C4C[C@@H](O)CC[C@]4(C)[C@H]3CC[C@]12C` it was 5.5 µM; in that of `C[C@H](CCC(=O)N[C@H](CC(=O)O)Cc1cn(S(=O)(=O)c2cccc(C#N)c2)c2ccccc12)[C@H]1CC[C@H]2[C@@H]3CC=C4C[C@@H](O)CC[C@]4(C)[C@H]3CC[C@]12C`, 24 µM.
The value for `C[C@H](CCC(=O)N[C@H](CC(=O)O)Cc1cn(S(=O)(=O)c2cccc(-c3ccccc3)c2)c2ccccc12)[C@H]1CC[C@H]2[C@@H]3CC=C4C[C@@H](O)CC[C@]4(C)[C@H]3CC[C@]12C` was 16 µM; that for `Cc1cccc(S(=O)(=O)n2cc(C[C@@H](CC(=O)O)NC(=O)CC[C@@H](C)[C@H]3CC[C@H]4[C@@H]5CC=C6C[C@@H](O)CC[C@]6(C)[C@H]5CC[C@]34C)c3ccccc32)c1` was 24 µM.

(Values after ChEMBL document CHEMBL5614382, “Discovery of a new 1-(phenylsulfonyl)-1H-indole derivative targeting the EphA2 receptor with antiproliferative activity on U251 glioblastoma cell line” (Eur J Med Chem, 2024).)
